Source: patent US20090156646A1, “PYRIDYLPHENOL COMPOUND AND USE THEREOF” (TAKEDA PHARMACEUTICAL COMPANY LIMITED, priority 2005, published 2009)

Experiments:
[1] = target: T1, human metastin receptor hOT7T175 (Homo sapiens, UniProt Q969F8, L364H); assay: binding inhibiting activity: 125I-metastin (40-54) binding to cell membrane fraction of h175 KB34 cells; conditions: room temperature 60 minutes, read-out: binding inhibiting activity, represented by the IC50 value
T1 construct: encoding the entire length of human metastin receptor hOT7T175; expressed in transfected cells; host or cells: CHO/dhFr- cells (ATCC #CRL-9096) stably transfected with pAKKO-hOT7T175; clone h175-16 was used as whole cells for FLIPR
Method in brief: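 Membranes came from CHO/dhfr− cells stably expressing human hOT7T175 (clone h175 KB34) and were diluted 250-fold for use. Binding of 125I-metastin (40-54) was run in 20 mM Tris, 2.5 mM magnesium acetate and 2 mM EGTA, pH 7.4, with protease inhibitors, either without BSA or with 1 mg/ml BSA.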

T1 sequence (Q969F8 whole entry L364H): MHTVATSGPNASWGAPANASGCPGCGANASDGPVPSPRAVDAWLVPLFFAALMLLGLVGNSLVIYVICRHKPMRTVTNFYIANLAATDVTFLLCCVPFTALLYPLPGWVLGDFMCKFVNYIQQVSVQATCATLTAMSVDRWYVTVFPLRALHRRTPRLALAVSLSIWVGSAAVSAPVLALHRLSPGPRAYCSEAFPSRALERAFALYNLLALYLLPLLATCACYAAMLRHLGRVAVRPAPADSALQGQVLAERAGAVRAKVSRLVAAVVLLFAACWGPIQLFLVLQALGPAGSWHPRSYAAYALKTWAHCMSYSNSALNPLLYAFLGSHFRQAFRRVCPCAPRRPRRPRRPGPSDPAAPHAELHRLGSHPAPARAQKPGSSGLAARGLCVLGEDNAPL

Row | IC50 [1] | melting point | Compound
1 | ≤ 10 µM | 240 to 241 °C | Cl.N#Cc1c(-c2cccc(C(=O)NC3CCNC3)c2)cc(-c2ccc(F)cc2O)nc1NC(=O)c1cccs1 (centres unmarked) [Example 79, N-(3-cyano-6-(4-fluoro-2-hydroxyphenyl)-4-{3-[(pyrrolidine-3-ylamino)carbonyl]phenyl}pyridin-2-yl)thiophene-2-carboxamide hydrochloride]
2 | ≤ 10 µM | 265 to 268 °C | CC(C)(CN)CNC(=O)c1cccc(-c2cc(-c3ccc(F)cc3O)nc(NC(=O)c3cccs3)c2C#N)c1.Cl [Example 80, N-[4-(3-{[(3-amino-2,2-dimethylpropyl)amino]carbonyl}phenyl)-3-cyano-6-(4-fluoro-2-hydroxyphenyl)pyridin-2-yl]thiophene-2-carboxamide hydrochloride]
3 | ≤ 10 µM | 228 to 229 °C | Cl.N#Cc1c(-c2cccc(C(=O)NCCN)c2)cc(-c2ccc(F)cc2O)nc1NC(=O)c1cccs1 [Example 81, N-[4-(3-{[(2-aminoethyl)amino]carbonyl}phenyl)-3-cyano-6-(4-fluoro-2-hydroxyphenyl)pyridin-2-yl]thiophene-2-carboxamide hydrochloride]
4 | ≤ 10 µM | 241 to 244 °C | CC(C)(CN)CNC(=O)c1cccc(-c2cc(-c3ccc(Cl)cc3O)nc(NC(=O)c3ccco3)c2C#N)c1.Cl [Example 85, N-[4-(3-{[(3-amino-2,2-dimethylpropyl)amino]carbonyl}phenyl)-6-(4-chloro-2-hydroxyphenyl)-3-cyanopyridin-2-yl]-2-furamide hydrochloride]
5 | ≤ 10 µM | 252 to 255 °C | Cl.N#Cc1c(-c2cccc(C(=O)NCCN)c2)cc(-c2ccc(Cl)cc2O)nc1NC(=O)c1ccco1 [Example 86, N-[4-(3-{[(2-aminoethyl)amino]carbonyl}phenyl)-6-(4-chloro-2-hydroxyphenyl)-3-cyanopyridin-2-yl]-2-furamide hydrochloride]
6 | ≤ 10 µM | 227 to 229 °C | COc1ccccc1C(=O)Nc1nc(-c2ccc(F)cc2O)cc(-c2cccc(C(=O)NCCN)c2)c1C#N.Cl [Example 244, N-[4-(3-{[(2-aminoethyl)amino]carbonyl}phenyl)-3-cyano-6-(4-fluoro-2-hydroxyphenyl)pyridin-2-yl]-2-methoxybenzamide hydrochloride]
7 | ≤ 10 µM | 234 to 235 °C | COc1ccccc1C(=O)Nc1nc(-c2ccc(F)cc2O)cc(-c2cccc(C(=O)NCCCn3ccnc3)c2)c1C#N.Cl [Example 245, N-{3-cyano-6-(4-fluoro-2-hydroxyphenyl)-4-[3-({[3-(1H-imidazol-1-yl)propyl]amino}carbonyl)phenyl]pyridin-2-yl}-2-methoxybenzamide hydrochloride]
8 | ≤ 10 µM | 244 to 246 °C | COc1ccccc1C(=O)Nc1nc(-c2ccc(F)cc2O)cc(-c2cccc(C(=O)NCC(C)(C)CN)c2)c1C#N.Cl [Example 246, N-[4-(3-{[(3-amino-2,2-dimethylpropyl)amino]carbonyl}phenyl)-3-cyano-6-(4-fluoro-2-hydroxyphenyl)pyridin-2-yl]-2-methoxybenzamide hydrochloride]
9 | ≤ 10 µM | 232 to 233 °C | COc1ccccc1C(=O)Nc1nc(-c2ccc(F)cc2O)cc(-c2cccc(NC(=O)CCN)c2)c1C#N.Cl [Example 247, N-[4-[3-(β-alanylamino)phenyl]-3-cyano-6-(4-fluoro-2-hydroxyphenyl)pyridin-2-yl]-2-methoxybenzamide hydrochloride]
10 | ≤ 10 µM | 242 to 244 °C | Cl.N#Cc1c(-c2cccc(C(=O)NCCN)c2)cc(-c2ccc(Cl)cc2O)nc1NC(=O)c1nccs1 [Example 249, N-[4-(3-{[(2-aminoethyl)amino]carbonyl}phenyl)-6-(4-chloro-2-hydroxyphenyl)-3-cyanopyridin-2-yl]-1,3-thiazole-2-carboxamide hydrochloride]
11 | ≤ 10 µM | 208 to 212 °C | Cl.N#Cc1c(-c2cccc(C(=O)NCCCn3ccnc3)c2)cc(-c2ccc(Cl)cc2O)nc1NC(=O)c1nccs1 [Example 250, N-{6-(4-chloro-2-hydroxyphenyl)-3-cyano-4-[3-({[3-(1H-imidazol-1-yl)propyl]amino}carbonyl)phenyl]pyridin-2-yl}-1,3-thiazole-2-carboxamide hydrochloride]
12 | ≤ 10 µM | 212 to 214 °C | CCC(N)CC(=O)Nc1cccc(-c2cc(-c3ccc(F)cc3O)nc(NC(=O)c3ccco3)c2C#N)c1.Cl (centres unmarked) [Example 264, N-[4-{3-[(3-aminopentanoyl)amino]phenyl}-3-cyano-6-(4-fluoro-2-hydroxyphenyl)pyridin-2-yl]-2-furamide hydrochloride]

More lines, now with the values behind:

Row | Compound | IC50 [1] | melting point
13 | Cl.N#Cc1c(-c2cccc(C(=O)NCCCn3ccnc3)c2)cc(-c2ccc(Cl)cc2O)nc1NC(=O)c1ccco1 [Example 83, N-{6-(4-chloro-2-hydroxyphenyl)-3-cyano-4-[3-({[3-(1H-imidazol-1-yl)propyl]amino}carbonyl)phenyl]pyridin-2-yl}-2-furamide hydrochloride] | ≤ 10 µM | 182 to 184 °C
14 | Cl.N#Cc1c(-c2cccc(C(=O)NCC3CCCCN3)c2)cc(-c2ccc(Cl)cc2O)nc1NC(=O)c1ccco1 (centres unmarked) [Example 84, N-[6-(4-chloro-2-hydroxyphenyl)-3-cyano-4-(3-{[(piperidin-2-ylmethyl)amino]carbonyl}phenyl)pyridin-2-yl]-2-furamide hydrochloride] | ≤ 10 µM | 222 to 226 °C
15 | C[C@@H](N)C(=O)Nc1cccc(-c2cc(-c3ccc(Cl)cc3O)nc(NC(=O)c3ccco3)c2C#N)c1.Cl [Example 237, N-[4-[3-(alanylamino)phenyl]-6-(4-chloro-2-hydroxyphenyl)-3-cyanopyridin-2-yl]-2-furamide hydrochloride] | ≤ 10 µM | 210 to 216 °C
16 | CC(N)CC(=O)Nc1cccc(-c2cc(-c3ccc(Cl)cc3O)nc(NC(=O)c3ccco3)c2C#N)c1.Cl (centres unmarked) [Example 238, N-[4-{3-[(3-aminobutanoyl)amino]phenyl}-6-(4-chloro-2-hydroxyphenyl)-3-cyanopyridin-2-yl]-2-furamide hydrochloride] | ≤ 10 µM | 206 to 214 °C
17 | Cl.N#Cc1c(-c2cccc(NC(=O)Cn3ccnc3)c2)cc(-c2ccc(Cl)cc2O)nc1NC(=O)c1ccco1 [Example 239, N-(6-(4-chloro-2-hydroxyphenyl)-3-cyano-4-{3-[(1H-imidazole-1-ylacetyl)amino]phenyl}pyridin-2-yl)-2-furamide hydrochloride] | ≤ 10 µM | 188 to 194 °C
18 | C[C@H](N)C(=O)Nc1cccc(-c2cc(-c3ccc(Cl)cc3O)nc(NC(=O)c3ccco3)c2C#N)c1.Cl [Example 240, N-[4-[3-(L-alanylamino)phenyl]-6-(4-chloro-2-hydroxyphenyl)-3-cyanopyridin-2-yl]-2-furamide hydrochloride] | ≤ 10 µM | 207 to 210 °C
19 | Cl.N#Cc1c(-c2cccc(NC(=O)C3CCNC3)c2)cc(-c2ccc(Cl)cc2O)nc1NC(=O)c1ccco1 (centres unmarked) [Example 241, N-{3-[6-(4-chloro-2-hydroxyphenyl)-3-cyano-2-(2-furoylamino)pyridin-4-yl]phenyl}pyrrolidine-3-carboxamide hydrochloride] | ≤ 10 µM | 226 to 235 °C
20 | Cl.N#Cc1c(-c2cccc(NC(=O)CCCn3ccnc3)c2)cc(-c2ccc(Cl)cc2O)nc1NC(=O)c1ccco1 [Example 242, N-[6-(4-chloro-2-hydroxyphenyl)-3-cyano-4-(3-{[4-(1H-imidazole-1-yl)butanoyl]amino}phenyl)pyridin-2-yl]-2-furamide hydrochloride] | ≤ 10 µM | 166 to 170 °C
21 | COc1ccc(C(=O)Nc2nc(-c3ccc(Cl)cc3O)cc(-c3cccc(NC(=O)CCN)c3)c2C#N)cc1.Cl [Example 252, N-[4-[3-(β-alanylamino)phenyl]-6-(4-chloro-2-hydroxyphenyl)-3-cyanopyridin-2-yl]-4-methoxybenzamide hydrochloride] | ≤ 10 µM | 193 to 197 °C
22 | Cl.N#Cc1c(-c2cccc(NC(=O)C(N)c3ccccc3)c2)cc(-c2ccc(F)cc2O)nc1NC(=O)c1ccco1 (centres unmarked) [Example 258, N-[4-(3-{[amino(phenyl)acetyl]amino}phenyl)-3-cyano-6-(4-fluoro-2-hydroxyphenyl)pyridin-2-yl]-2-furamide hydrochloride] | ≤ 10 µM | 224 to 225 °C
23 | Cl.N#Cc1c(-c2cccc(NC(=O)CN3CCCC3)c2)cc(-c2ccc(F)cc2O)nc1NC(=O)c1ccco1 [Example 259, N-(3-cyano-6-(4-fluoro-2-hydroxyphenyl)-4-{3-[(pyrrolidin-1-ylacetyl)amino]phenyl}pyridin-2-yl)-2-furamide hydrochloride] | ≤ 10 µM | 203 to 205 °C
24 | Cl.N#Cc1c(-c2cccc(NC(=O)[C@H](N)Cc3ccccc3)c2)cc(-c2ccc(F)cc2O)nc1NC(=O)c1ccco1 [Example 263, N-{3-[3-cyano-6-(4-fluoro-2-hydroxyphenyl)-2-(2-furoylamino)pyridin-4-yl]phenyl}-D-phenylalaninamide hydrochloride] | ≤ 10 µM | 186 to 188 °C
25 | CCCC(N)CC(=O)Nc1cccc(-c2cc(-c3ccc(F)cc3O)nc(NC(=O)c3ccco3)c2C#N)c1.Cl (centres unmarked) [Example 265, N-[4-{3-[(3-aminohexanoyl)amino]phenyl}-3-cyano-6-(4-fluoro-2-hydroxyphenyl)pyridin-2-yl]-2-furamide hydrochloride] | ≤ 10 µM | 214 to 217 °C
